The values that follow come from US20190314361A1 (Athenex Therapeutics Limited, priority 2018, published 2019).

Data set [1] in a line: Cardiovascular safety pharmacology in dogs. The class given is in vivo, dog. The note with it: oral administration.
The nature of data set [2]: CNS safety pharmacology study in rats. The class given is in vivo, rat. As to conditions: oral administration.

Regarding `COc1cc2c(cc1OC)CN(CCc1ccc(-n3nnc(-c4cc(OC)c(OC)cc4NC(=O)c4cc(=O)c5ccccc5o4)n3)cc1)CC2` [Compound A], in data set [1], the “Effect on PR and QRS intervals” value is listed as “absence”. Moreover, the “Effect on body temperature” value in data set [2] was “absence”.
